Test results as given in ChEMBL document CHEMBL5678818, “Discovery of potent SOS1 inhibitors that block RAS activation via disruption of the RAS-SOS1 interaction” (Proc Natl Acad Sci U S A, 2019).

Experiments:
[1] = target: Serine/threonine-protein kinase OSR1 (Homo sapiens) (UniProt O95747); test: Inhibition of OSR1 (unknown origin) assessed as residual activity at 1000 nM by KINOMEscan analysis relative to control
[2] = target: T1, Homeodomain-interacting protein kinase 4 (Homo sapiens) (UniProt Q8NE63); test: Inhibition of HIPK4 (unknown origin) assessed as residual activity at 1000 nM by KINOMEscan analysis relative to control
T1 sequence (whole entry): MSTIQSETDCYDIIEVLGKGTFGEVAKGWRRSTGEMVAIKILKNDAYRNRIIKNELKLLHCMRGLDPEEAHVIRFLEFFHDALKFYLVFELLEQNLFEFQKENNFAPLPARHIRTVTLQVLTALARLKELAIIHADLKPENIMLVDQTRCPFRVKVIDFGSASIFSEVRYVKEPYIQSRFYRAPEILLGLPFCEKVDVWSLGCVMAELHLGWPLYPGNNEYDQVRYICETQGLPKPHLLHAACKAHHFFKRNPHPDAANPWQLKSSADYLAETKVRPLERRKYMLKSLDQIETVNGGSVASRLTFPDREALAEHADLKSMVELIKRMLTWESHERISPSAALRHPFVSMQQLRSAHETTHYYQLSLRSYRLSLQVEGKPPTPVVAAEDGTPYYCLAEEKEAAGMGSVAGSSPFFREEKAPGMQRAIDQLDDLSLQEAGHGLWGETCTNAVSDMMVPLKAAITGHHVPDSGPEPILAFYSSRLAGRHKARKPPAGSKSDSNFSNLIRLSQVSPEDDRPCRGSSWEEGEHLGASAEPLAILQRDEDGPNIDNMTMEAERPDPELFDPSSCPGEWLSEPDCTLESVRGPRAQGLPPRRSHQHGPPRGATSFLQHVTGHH

[3] = target: T2, Ephrin type-A receptor 1 (Homo sapiens) (UniProt P21709); test: Inhibition of EPHA1 (unknown origin) assessed as residual activity at 1000 nM by KINOMEscan analysis relative to control
T2 sequence (whole entry): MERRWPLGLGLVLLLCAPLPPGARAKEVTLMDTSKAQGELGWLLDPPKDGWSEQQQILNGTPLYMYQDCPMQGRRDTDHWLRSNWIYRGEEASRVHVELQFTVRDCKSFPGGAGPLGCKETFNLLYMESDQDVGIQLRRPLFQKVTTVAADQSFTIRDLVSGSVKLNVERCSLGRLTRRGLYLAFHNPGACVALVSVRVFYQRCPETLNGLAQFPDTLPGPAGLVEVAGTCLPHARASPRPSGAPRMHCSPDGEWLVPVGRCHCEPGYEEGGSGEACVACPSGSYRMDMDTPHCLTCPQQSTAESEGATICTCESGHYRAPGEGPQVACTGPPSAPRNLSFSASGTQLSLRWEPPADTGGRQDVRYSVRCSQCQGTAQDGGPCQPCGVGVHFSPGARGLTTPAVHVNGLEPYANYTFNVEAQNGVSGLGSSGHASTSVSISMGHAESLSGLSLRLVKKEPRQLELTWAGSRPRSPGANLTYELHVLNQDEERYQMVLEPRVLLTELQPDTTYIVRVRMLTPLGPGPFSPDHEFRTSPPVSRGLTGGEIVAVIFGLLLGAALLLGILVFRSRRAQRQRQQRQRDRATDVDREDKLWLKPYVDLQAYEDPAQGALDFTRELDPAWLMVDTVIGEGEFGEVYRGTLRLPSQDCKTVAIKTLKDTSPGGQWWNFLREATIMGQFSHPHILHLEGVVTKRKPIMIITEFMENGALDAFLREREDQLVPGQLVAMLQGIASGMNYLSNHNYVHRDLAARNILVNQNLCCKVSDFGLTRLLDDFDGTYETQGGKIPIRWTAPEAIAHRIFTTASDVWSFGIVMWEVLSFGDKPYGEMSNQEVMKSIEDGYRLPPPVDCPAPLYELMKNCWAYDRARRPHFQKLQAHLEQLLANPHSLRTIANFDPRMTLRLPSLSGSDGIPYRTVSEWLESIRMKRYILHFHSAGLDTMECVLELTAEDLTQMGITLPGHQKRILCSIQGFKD

[4] = target: Serine/threonine-protein kinase PAK 3 (Homo sapiens) (UniProt O75914); test: Inhibition of PAK3 (unknown origin) assessed as residual activity at 1000 nM by KINOMEscan analysis relative to control
[5] = target: Mitogen-activated protein kinase kinase kinase 12 (Homo sapiens) (UniProt Q12852); test: Inhibition of DLK (unknown origin) assessed as residual activity at 1000 nM by KINOMEscan analysis relative to control
[6] = target: Serine/threonine-protein kinase Nek7 (Homo sapiens) (UniProt Q8TDX7); test: Inhibition of NEK7 (unknown origin) assessed as residual activity at 1000 nM by KINOMEscan analysis relative to control
[7] = target: Tyrosine-protein kinase Tec (Homo sapiens) (UniProt P42680); test: Inhibition of TEC (unknown origin) assessed as residual activity at 1000 nM by KINOMEscan analysis relative to control
[8] = target: Phosphorylase b kinase gamma catalytic chain, skeletal muscle/heart isoform (Homo sapiens) (UniProt Q16816); test: Inhibition of PHKG1 (unknown origin) assessed as residual activity at 1000 nM by KINOMEscan analysis relative to control
[9] = target: Epidermal growth factor receptor (Homo sapiens, UniProt P00533); test: Inhibition of EGFR (unknown origin) assessed as residual activity at 1000 nM by KINOMEscan analysis relative to control
[10] = target: T3, Mitogen-activated protein kinase 12 (Homo sapiens) (UniProt P53778); test: Inhibition of p38-gamma (unknown origin) assessed as residual activity at 1000 nM by KINOMEscan analysis relative to control
T3 sequence (whole entry): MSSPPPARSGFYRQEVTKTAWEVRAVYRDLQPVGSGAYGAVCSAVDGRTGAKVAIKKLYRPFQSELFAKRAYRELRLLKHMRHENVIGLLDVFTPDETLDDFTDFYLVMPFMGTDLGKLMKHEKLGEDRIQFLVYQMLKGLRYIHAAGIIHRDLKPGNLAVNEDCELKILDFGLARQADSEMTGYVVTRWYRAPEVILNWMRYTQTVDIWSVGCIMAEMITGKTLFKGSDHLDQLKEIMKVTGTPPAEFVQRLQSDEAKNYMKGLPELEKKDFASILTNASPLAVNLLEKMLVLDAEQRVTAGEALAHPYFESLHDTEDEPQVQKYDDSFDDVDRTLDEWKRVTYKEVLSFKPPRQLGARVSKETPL

[11] = system: Mast/stem cell growth factor receptor Kit (Homo sapiens), P10721 [L576P]; test: Inhibition of KIT L576P mutant (unknown origin) assessed as residual activity at 1000 nM by KINOMEscan analysis relative to control

Chain of Epidermal growth factor receptor (P00533 whole entry): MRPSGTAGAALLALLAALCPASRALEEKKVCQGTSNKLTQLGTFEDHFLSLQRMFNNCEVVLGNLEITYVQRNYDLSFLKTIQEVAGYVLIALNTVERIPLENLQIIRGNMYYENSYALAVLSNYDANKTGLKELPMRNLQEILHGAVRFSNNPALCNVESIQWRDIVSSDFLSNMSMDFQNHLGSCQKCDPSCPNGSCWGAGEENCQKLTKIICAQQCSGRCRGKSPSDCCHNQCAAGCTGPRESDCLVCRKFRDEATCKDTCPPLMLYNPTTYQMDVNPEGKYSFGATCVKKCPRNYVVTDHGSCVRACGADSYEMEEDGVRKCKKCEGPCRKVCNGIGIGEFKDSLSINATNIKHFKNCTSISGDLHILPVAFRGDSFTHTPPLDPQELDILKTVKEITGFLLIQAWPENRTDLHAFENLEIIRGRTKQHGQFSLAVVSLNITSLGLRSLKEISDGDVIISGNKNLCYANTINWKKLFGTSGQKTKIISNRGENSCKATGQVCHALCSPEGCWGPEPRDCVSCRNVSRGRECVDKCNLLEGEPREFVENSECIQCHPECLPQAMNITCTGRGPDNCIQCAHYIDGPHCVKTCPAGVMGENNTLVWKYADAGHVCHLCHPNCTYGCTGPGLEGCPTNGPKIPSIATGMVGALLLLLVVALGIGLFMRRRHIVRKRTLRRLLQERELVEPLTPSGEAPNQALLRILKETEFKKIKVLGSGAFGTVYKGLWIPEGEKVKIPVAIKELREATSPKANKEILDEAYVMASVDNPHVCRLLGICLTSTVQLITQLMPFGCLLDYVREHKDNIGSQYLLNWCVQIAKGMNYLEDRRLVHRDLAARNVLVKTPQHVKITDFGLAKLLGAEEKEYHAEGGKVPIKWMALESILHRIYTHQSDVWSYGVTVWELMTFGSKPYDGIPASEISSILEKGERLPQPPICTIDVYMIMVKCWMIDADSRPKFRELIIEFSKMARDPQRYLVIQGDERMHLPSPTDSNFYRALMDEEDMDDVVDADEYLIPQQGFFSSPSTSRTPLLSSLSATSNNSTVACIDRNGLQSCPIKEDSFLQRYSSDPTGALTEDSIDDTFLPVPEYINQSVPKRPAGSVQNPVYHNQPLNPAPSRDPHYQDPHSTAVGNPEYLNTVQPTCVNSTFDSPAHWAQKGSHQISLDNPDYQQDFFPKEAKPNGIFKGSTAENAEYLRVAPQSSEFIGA
Chain of Serine/threonine-protein kinase Nek7 (Homo sapiens) (Q8TDX7 whole entry, looked up): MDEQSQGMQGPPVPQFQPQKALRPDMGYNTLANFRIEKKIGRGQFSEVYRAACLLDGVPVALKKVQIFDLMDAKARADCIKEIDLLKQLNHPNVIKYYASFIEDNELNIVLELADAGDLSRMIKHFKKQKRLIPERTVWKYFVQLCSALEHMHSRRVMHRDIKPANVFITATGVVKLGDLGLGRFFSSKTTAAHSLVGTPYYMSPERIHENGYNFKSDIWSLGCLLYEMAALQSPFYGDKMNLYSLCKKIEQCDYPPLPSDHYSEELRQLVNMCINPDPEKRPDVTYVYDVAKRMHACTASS
Chain of Phosphorylase b kinase gamma catalytic chain, skeletal muscle/heart isoform (Homo sapiens) (Q16816 whole entry, looked up, canonical isoform): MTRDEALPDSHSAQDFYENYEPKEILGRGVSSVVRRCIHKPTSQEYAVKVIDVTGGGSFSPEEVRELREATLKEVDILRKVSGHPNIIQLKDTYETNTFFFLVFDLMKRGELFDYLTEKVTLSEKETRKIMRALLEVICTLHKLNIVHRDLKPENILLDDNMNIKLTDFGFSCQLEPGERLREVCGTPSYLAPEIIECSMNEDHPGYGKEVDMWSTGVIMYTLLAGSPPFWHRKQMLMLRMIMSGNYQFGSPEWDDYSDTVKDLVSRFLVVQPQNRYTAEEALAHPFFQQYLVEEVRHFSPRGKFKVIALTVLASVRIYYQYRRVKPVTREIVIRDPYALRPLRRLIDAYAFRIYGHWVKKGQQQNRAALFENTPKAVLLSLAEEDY
Chain of Tyrosine-protein kinase Tec (Homo sapiens) (P42680 whole entry, looked up, canonical isoform): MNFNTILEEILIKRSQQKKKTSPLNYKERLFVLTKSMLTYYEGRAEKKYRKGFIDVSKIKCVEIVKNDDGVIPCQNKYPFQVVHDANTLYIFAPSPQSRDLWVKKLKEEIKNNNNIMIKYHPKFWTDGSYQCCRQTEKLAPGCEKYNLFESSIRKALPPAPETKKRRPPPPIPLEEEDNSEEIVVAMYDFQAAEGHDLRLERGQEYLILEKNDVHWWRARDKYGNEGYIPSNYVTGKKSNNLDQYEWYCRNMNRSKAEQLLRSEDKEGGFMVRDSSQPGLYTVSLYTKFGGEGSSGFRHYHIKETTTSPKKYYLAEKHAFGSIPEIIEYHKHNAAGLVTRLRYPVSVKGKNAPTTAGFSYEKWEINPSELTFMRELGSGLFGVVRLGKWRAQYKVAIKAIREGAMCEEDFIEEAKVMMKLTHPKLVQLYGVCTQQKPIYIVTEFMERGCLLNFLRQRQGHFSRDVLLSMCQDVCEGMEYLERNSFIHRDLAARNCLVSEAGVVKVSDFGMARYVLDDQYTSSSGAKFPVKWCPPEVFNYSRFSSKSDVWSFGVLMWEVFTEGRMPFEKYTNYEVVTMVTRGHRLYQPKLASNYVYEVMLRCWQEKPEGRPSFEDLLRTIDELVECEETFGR
Chain of Serine/threonine-protein kinase PAK 3 (Homo sapiens) (O75914 whole entry, looked up): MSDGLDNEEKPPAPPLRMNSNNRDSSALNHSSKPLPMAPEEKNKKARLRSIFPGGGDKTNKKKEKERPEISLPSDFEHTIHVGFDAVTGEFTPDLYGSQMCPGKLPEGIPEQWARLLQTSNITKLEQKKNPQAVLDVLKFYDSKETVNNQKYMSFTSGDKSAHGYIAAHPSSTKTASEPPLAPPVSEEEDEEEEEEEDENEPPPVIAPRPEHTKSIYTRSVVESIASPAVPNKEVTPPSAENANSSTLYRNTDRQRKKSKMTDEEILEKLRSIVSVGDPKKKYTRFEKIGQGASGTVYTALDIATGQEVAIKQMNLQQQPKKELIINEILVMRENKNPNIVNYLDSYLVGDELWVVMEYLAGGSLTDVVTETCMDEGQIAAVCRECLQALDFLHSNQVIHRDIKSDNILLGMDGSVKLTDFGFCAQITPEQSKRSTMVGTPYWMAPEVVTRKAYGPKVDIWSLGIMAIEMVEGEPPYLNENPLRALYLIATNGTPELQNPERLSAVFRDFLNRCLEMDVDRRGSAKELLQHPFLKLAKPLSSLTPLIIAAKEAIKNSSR
Chain of Mitogen-activated protein kinase kinase kinase 12 (Homo sapiens) (Q12852 whole entry, looked up): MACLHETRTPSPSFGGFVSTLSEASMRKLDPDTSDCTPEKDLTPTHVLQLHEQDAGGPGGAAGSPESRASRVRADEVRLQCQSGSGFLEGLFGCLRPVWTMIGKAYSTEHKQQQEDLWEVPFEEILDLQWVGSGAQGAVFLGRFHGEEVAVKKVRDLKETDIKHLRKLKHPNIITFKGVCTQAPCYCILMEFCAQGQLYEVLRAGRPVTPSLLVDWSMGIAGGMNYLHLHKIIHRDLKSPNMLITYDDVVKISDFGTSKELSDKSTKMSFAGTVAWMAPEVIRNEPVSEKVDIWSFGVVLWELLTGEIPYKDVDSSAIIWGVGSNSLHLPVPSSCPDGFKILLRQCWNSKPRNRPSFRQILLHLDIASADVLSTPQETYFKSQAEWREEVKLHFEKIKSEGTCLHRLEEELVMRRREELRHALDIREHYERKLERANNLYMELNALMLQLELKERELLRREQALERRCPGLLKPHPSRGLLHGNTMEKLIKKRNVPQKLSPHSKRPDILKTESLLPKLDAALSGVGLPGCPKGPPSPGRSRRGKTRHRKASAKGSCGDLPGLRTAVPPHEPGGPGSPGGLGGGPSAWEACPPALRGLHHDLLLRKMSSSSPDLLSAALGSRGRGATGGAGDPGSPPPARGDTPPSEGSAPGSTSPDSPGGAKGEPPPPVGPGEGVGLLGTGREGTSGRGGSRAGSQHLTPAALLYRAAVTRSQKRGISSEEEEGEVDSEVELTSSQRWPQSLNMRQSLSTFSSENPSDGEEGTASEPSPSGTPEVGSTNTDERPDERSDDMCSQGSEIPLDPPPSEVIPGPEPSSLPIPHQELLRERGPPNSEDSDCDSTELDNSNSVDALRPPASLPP
Chain of Serine/threonine-protein kinase OSR1 (Homo sapiens) (O95747 whole entry, looked up): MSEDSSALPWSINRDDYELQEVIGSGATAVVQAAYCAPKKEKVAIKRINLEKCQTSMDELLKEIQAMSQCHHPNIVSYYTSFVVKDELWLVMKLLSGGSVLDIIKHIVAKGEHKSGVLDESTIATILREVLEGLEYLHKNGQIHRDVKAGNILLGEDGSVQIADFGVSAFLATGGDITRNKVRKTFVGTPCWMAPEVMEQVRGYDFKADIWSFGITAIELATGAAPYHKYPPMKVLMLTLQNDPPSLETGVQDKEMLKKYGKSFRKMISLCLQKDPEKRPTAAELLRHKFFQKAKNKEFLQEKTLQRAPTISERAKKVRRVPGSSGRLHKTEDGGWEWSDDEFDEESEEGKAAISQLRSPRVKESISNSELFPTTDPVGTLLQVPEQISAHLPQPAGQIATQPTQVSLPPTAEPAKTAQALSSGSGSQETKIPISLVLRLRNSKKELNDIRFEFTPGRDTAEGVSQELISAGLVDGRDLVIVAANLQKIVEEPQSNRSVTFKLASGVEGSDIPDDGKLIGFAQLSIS

Row | SMILES | Activity [1] | Activity [2] | Activity [3] | Activity [4] | Activity [5] | Activity [6] | Activity [7] | Activity [8] | Activity [9] | Activity [10] | Activity [11]
1 | COc1cc2nc(C)nc(N[C@H](C)c3cccc(-c4cn[nH]c4)c3)c2cc1OC | 93% | 80% | 39% | 34% | 95% | 89% | 85% | 100% | 88% | 52% | 85%
2 | COc1cc2ncnc(N[C@H](C)c3cccc4ccccc34)c2cc1OC | 97% | 100% | 100% | 58% | 92% | 100% | 98% | 100% | 3.2% | 91% | 95%
